Laboratory results taken from patent US10130598B2, “Methods and compositions for administration of 3-halopyruvate and related compounds for the treatment of cancer” (The Johns Hopkins University, priority 2008, dated 2018).
pIC50: −log10 of the molar value.

Tests used:
Assay type in all cases: cell-based
[1] = system: genomic DNA; assay: 14C-3-BrPA incorporation into genomic DNA (scintillation counting); conditions: SK-Hep and Hep3B cells exposed to 14C-3-BrPA
Procedure: Many antineoplastic chemotherapeutics are alkylating agents that exert their effect by binding to DNA and interfering with cell replication. […] Since 3-BrPA has been reported to be an alkylating agent, it was determined whether 3-BrPA is incorporated into the DNA of 3-BrPA treated cells. To accomplish this, genomic DNA was isolated from SK-Hep and Hep3B cells that had been exposed to ^14C-3-BrPA.

[2] = system: Hep3B cells; assay: ATP dependent luminescence cell viability assay, Hep3B
Text: The non-small cell lung cancer (NSCLC) cell line NCI-H1299, the breast cancer cell lines MCF7 and MDA MB 231 and the Hep3B, Hep2G and SK-Hep1 cells were obtained from the American Type Culture Collection (ATCC) (Manassas, Va., USA) and maintained as a monolayer culture in Eagle's minimum essential medium (MEM, Invitrogen, Gaithersburg, Md., USA) supplemented with 10% fetal bovine serum at 37 C and 5% CO2. All treatments were done in triplicate samples on 96-well plates. VX2 cells were maintained as described in Geschwind et al., Cancer Res., 62:3909-3913 (2002).
Cytotoxicity of 3-BrPA was evaluated by the IC50 values, representing the drug concentration which depletes ATP by 50% compared to non-treated control. On day 1, cells were seeded into 96-well plates in a volume of 100 μl per well. On day 2, the medium of all wells was removed and an aliquot of 100 μl of media having serial dilutions of 3-BrPA in PBS, NaHCO3, NaOH, KOH and KHCO3 was added to the appropriate well. […] Briefly, 100 μl assay reagent was added to each well and mixed at room temperature for 2 min to develop luminescent signal. The luminescence intensity (cps) from each sample was determined with a spectrometer (Model Victor III, Perkin Elmer, Mass.). […]
The effects on cell viability and cellular metabolism of 3-BrPA on Hep3B and VX2 cells were examined using luminescence ATP assays, as described above. […]

[3] = system: Hep3B, HepG2, SK-Hep1 and VX2 cells; assay: Annexin V apoptosis assay (flow cytometry and fluorescent microscopy)
Procedure: The apoptosis of 3-BrPA treated cells was evaluated using Annexin V staining and the formation of active caspase-3. Cells treated with 3-BrPA were stained with anti-Annexin V and analyzed by flow cytometry as well as fluorescent microscopy. Flow cytometry was performed using a Becton-Dickinson FACSCalibur. The gating was done based on unstained control cells, Annexin V—PE stained and 7-AAD stained control cells. For fluorescent microscopy, Annexin V staining was performed using Annexin V staining Microscopy kit (BD Biosciences, USA) according to the protocol recommended by the manufacturer. In brief, cells grown in chambered slides were treated with either 3BrPA or the vehicle, washed once with ice-cold PBS followed by two washes with binding buffer, at the end of the treatment period. Cells were then incubated with the FITC-conjugated Annexin V fluorescent antibody for 15 min followed by a gentle wash. The cells were kept in binding buffer and images were observed captured using a Zeiss Axiovert 200 Microscope (Carl Zeiss Microimaging Inc., USA). Active caspase-3, an apoptotic marker, was identified by western blot analysis. Lysates prepared from equal numbers of cells treated with different concentrations of 3BrPA were subjected to SDS-PAGE electrophoresis and immunoblotting against active (cleaved) caspase-3.
In order to confirm that the cytotoxic effects of 3BrPA involves cellular apoptotic pathways, Annexin V levels and Caspase-3 activation was examined in cells treated with 3-BrPA. […] Additionally, immunoblotting of cell lysates with activated-Caspase-3 specific antibodies confirmed the activation of caspase-3 during 3BrPA mediated cell death (FIG. 8).

O=C(O)C(=O)CBr [3-BrPA, 3-bromopyruvate]
14C incorporation into genomic DNA [1]: no evidence of ^14C incorporation
Level of ATP ([2]; 3, 24, 48 hours): dose and time dependent decrease
pIC50 ([2]; at 48 hours, read-out: IC50 (ATP depletion)): 3.90
Annexin V positive cells (flow cytometry) ([3]; Annexin V-PE and 7-AAD staining, 100 and 200 μM): dose dependent increase
Number of apoptotic cells compared with control ([3]; all cell lines, after 2 hours of treatment, 200 μM): significant increase
Annexin V staining (photomicrographs) ([3]; treated vs control): elevated levels of Annexin V
